Experimental data: ChEMBL document CHEMBL3860033, “Recent advances of cytotoxic chalconoids targeting tubulin polymerization: Synthesis and biological activity” (Eur J Med Chem, 2016)

Assays:
[1] = Cytotoxicity against human K562 cells assessed as growth inhibition after 5 days by MTT assay; type: functional, cell-based; conditions: K562, 120 h
[2] = Cytotoxicity against human Capan1 cells assessed as decrease in cell viability after 24 to 48 hrs by CCK8 assay; type: functional, cell-based; conditions: CAPAN-1
[3] = Cytotoxicity against human NCI60 cells after 48 hrs by SRB assay; type: functional; conditions: NCI60, 48 h
[4] = Inhibition of porcine brain tubulin polymerization by spectrophotometric method; set-up: species or system Sus scrofa
[5] = Displacement of [3H]-colchicine from porcine tubulin; set-up: species or system Sus scrofa
[6] = Cytotoxicity against human HeLa cells assessed as decrease in cell viability after 72 hrs by MTT assay; type: functional, cell-based
[7] = Cytotoxicity against human HCT116 cells assessed as decrease in cell viability after 72 hrs by MTT assay; type: functional, cell-based; conditions: HCT-116, 72 h
[8] = Cytotoxicity against human A549 cells assessed as decrease in cell viability after 72 hrs by MTT assay; type: functional, cell-based; conditions: A549, 72 h
Ovis aries = species on record: Ovis aries; assay: Binding affinity to lamb brain tubulin using ultracentrifuge by absorbance assay
[9] = Cytotoxicity against human SW620 cells assessed as decrease in cell viability after 24 to 48 hrs by CCK8 assay; type: functional, cell-based; conditions: SW-620

COc1ccc(C=C(C)C(=O)c2cc(OC)c(OC)c(OC)c2)cc1O
IC50 [1]: 0.0002 µM

COc1ccc(C(=O)/C=C/c2cccc3ccccc23)c(O)c1
IC50 [2]: 5.2 µM

COc1cc(C(=O)C2OC2c2cc(OC)c(OC)c(OC)c2)cc(OC)c1OC (stereo not given)
GI50 [3]: 14.1 µM

COc1ccc(/C=C2\Oc3c(cc(OC)c(OC)c3OC)C2=O)cc1O
IC50 [4]: 22 µM
IC50 [5]: 60 µM

CCOc1cc2c(cc1C(=O)/C=C/c1ccc(OC)c(O)c1)OCS2
IC50 [6]: 0.001 to 0.009 µM
IC50 [7]: 0.001 to 0.009 µM
IC50 [8]: 0.001 to 0.009 µM

COc1cc(OC)c(C(=O)/C=C/c2cn(C)c3ccccc23)c(OC)c1
Kapp (Ovis aries): 2 ×10⁵ /M

COc1cc(OC)c(/C=C/C(=O)c2c(O)ccc3ccccc23)c(OC)c1
IC50 [9]: 14.5 µM
